Converted amounts (≈) assume the structure as drawn. Like-named read-outs stand apart in the source and are kept apart here.
Tests used:
[1] = test system: C. glabrata YEM-17 (CgCDR overexpressor); assay: microbe, parasite or virus in culture; format: cell-based; details: Nakaseomyces glabratus
[2] = test system: C. albicans YEM-10 (low level CDR1 expressor); assay: microbe, parasite or virus in culture; format: cell-based; details: Candida albicans, read-out: MIC Flu alone
YEM 30 C. albicans wt = assay: FEPI MIC with/without 1/8 fluconazole MIC at 24 hrs (Table 11); format: cell-based; details: Candida albicans, YEM 30
[3] = test system: C. albicans YEM-14 (low level CDR1 expressor); assay: microbe, parasite or virus in culture; format: cell-based; details: Candida albicans, read-out: MIC Flu alone
[4] = test system: C. albicans YEM-30 (wild-type, no pump deleted); assay: microbe, parasite or virus in culture; format: cell-based; details: Candida albicans, read-out: MIC Flu alone
[5] = test system: C. albicans YEM-12 (low level CDR1 expressor); assay: microbe, parasite or virus in culture; format: cell-based; details: Candida albicans, read-out: MIC Flu alone
[6] = test system: YEM 13 C. albicans BEN up; assay: microbe, parasite or virus in culture; format: cell-based; details: Candida albicans, read-out: FLU MIC
[7] = test system: S. cerevisiae YEM-39 overexpressing CgCDR (C. glabrata); assay: microbe, parasite or virus in culture; format: cell-based; details: Saccharomyces cerevisiae
YEM 53 C. krusei = assay: FEPI MIC with/without 1/8 fluconazole MIC at 24 hrs (Table 11); format: cell-based; details: Pichia kudriavzevii; YEM 53; NCCLS criteria for azoles; read-out: FLU MIC
C. tropicalis = assay: microbe, parasite or virus in culture; format: cell-based; details: Candida tropicalis, read-out: Fluconazole MIC, alone
[8] = test system: S. cerevisiae YEM-1 overexpressing CDR1 (C. albicans); assay: microbe, parasite or virus in culture; format: cell-based; details: Saccharomyces cerevisiae
C. neoformans = assay: microbe, parasite or virus in culture; format: cell-based, Cryptococcus neoformans; details: Cryptococcus neoformans, read-out: Fluconazole MIC, alone
[9] = test system: YEM 27 C. albicans ΔCDR1ΔCDR2 ΔBENΔFLU1; assay: microbe, parasite or virus in culture; format: cell-based; details: Candida albicans, read-out: FLU MIC
C. glabrata, CgCDR up = format: cell-based
Excerpt: (§1) The activity of one milbemycin was also studied in checker-board assays. […] It provides information on the extent of synergism between the two drugs and the concentrations at which synergism can be detected. Using differential surface analysis, pick of synergy volumes are quantified for each combination of drugs and strain tested in a traditional checkerboard assay (Table 13).

[10] = test system: C. albicans, CDR1, CDR2, up; format: cell-based
Excerpt: as §1

[11] = test system: C. albicans ΔCDR1 ΔCDR2 ΔBEN ΔFLU1; format: cell-based
Excerpt: as §1

C. krusei YEM-71 = assay: Broth dilution checkerboard, azoles and terbinafine with milbemycin α9 (Table 8); format: cell-based; details: Pichia kudriavzevii
[12] = test system: C. glabrata YEM-18 (low level CgBEN and CgCDR expression); assay: microbe, parasite or virus in culture; format: cell-based; details: YEM-18; fluconazole alone
YEM 51 C. glabrata wt = assay: FEPI MIC with/without 1/8 fluconazole MIC at 24 hrs (Table 11); format: cell-based; details: Nakaseomyces glabratus; YEM 51; NCCLS criteria for azoles; read-out: FLU MIC
[13] = test system: pCgBEN (MF) efflux pump in S. cerevisiae YEM-40; format: cell-based, C. glabrata
[14] = test system: C. albicans YEM-29 (BEN, FLU1 deleted); assay: microbe, parasite or virus in culture; format: cell-based; details: Candida albicans, read-out: MIC Flu alone
[15] = test system: C. albicans YEM-20 (CDR1 deleted); assay: microbe, parasite or virus in culture; format: cell-based; details: Candida albicans, read-out: MIC Flu alone
[16] = test system: S. cerevisiae YEM-3 parent strain (no pump); assay: microbe, parasite or virus in culture; format: cell-based; details: Saccharomyces cerevisiae, read-out: MIC for the parent strain to fluconazole
[17] = test system: C. glabrata YEM-16 (low level CgBEN and CgCDR expression); assay: microbe, parasite or virus in culture; format: cell-based; details: YEM-16; fluconazole alone
[18] = test system: C. albicans YEM-27 (CDR1, CDR2, BEN, FLU1 deleted); assay: microbe, parasite or virus in culture; format: cell-based; details: Candida albicans, read-out: MIC Flu alone
[19] = test system: C. albicans YEM-21 (BEN deleted); assay: microbe, parasite or virus in culture; format: cell-based; details: Candida albicans, read-out: MIC Flu alone
C. lipolytica = assay: microbe, parasite or virus in culture; format: cell-based; details: Yarrowia lipolytica, read-out: Fluconazole MIC, alone
[20] = test system: YEM 15 C. albicans, CDR1CDR2 up; assay: microbe, parasite or virus in culture; format: cell-based; details: Candida albicans, read-out: FLU MIC
[21] = test system: C. albicans YEM-24 (CDR1, CDR2 deleted); assay: microbe, parasite or virus in culture; format: cell-based; details: Candida albicans, read-out: MIC Flu alone
[22] = test system: C. krusei YEM-52 (ATCC 90878), wild type; assay: Broth dilution MIC, fluconazole with/without milbemycin oxime (Table 6); format: cell-based; details: Pichia kudriavzevii, ATCC90878; YEM-52 (ATCC 90878); read-out: MIC Flu alone
[23] = test system: C. glabrata YEM-17 (CgCDR overexpressor); assay: microbe, parasite or virus in culture; format: cell-based; details: YEM-17; fluconazole alone
C. krusei [24] = assay: MacSynergy 3-D synergy volume, checkerboard (Table 13); format: cell-based
Excerpt: as §1

C. albicans BEN up = assay: as above; format: cell-based
Excerpt: as §1

C. krusei [25] = assay: microbe, parasite or virus in culture; format: cell-based; details: Pichia kudriavzevii, read-out: Fluconazole MIC, alone
[26] = test system: C. glabrata clinical isolates (n = 12); assay: microbe, parasite or virus in culture; format: cell-based; details: Nakaseomyces glabratus
[27] = test system: S. cerevisiae YEM-37 overexpressing CDR2 (C. albicans); assay: microbe, parasite or virus in culture; format: cell-based; details: Saccharomyces cerevisiae
[28] = test system: C. albicans clinical isolates (n = 33); assay: microbe, parasite or virus in culture; format: cell-based; details: Candida albicans
[29] = test system: C. glabrata YEM-19 (CgCDR overexpression, higher than YEM-17); assay: microbe, parasite or virus in culture; format: cell-based; details: YEM-19; fluconazole alone
[30] = test system: YEM 24 C. albicans ΔCDR1, ΔCDR2; assay: microbe, parasite or virus in culture; format: cell-based; details: Candida albicans, read-out: FLU MIC
[31] = test system: C. albicans YEM-15 (CDR1 & CDR2 overexpressor); assay: microbe, parasite or virus in culture; format: cell-based; details: Candida albicans
C. albicans, wt = assay: MacSynergy 3-D synergy volume, checkerboard (Table 13); format: cell-based
Excerpt: as §1

C. glabrata, wt = assay: as above; format: cell-based
Excerpt: as §1

[32] = read-out: Fluconazole MIC90, alone

## OC(Cn1cncn1)(Cn1cncn1)c1ccc(F)cc1F [Fluconazole, fluconazole, reference compound]
[1]; read-out: Fluconazole MIC
  MIC: 128 µg/mL (≈ 418 µM)
[2]
  MIC: 0.25 µg/mL (≈ 0.816 µM)
YEM 30 C. albicans wt; read-out: FLU MIC at 40 hrs, read at 40 hrs
  MIC: 64 µg/mL (≈ 209 µM)
YEM 30 C. albicans wt; read at 24 hours, read-out: FLU MIC at 24 hours
  MIC: 0.5 µg/mL (≈ 1.63 µM)
[3]
  MIC: 0.125 µg/mL (≈ 0.408 µM)
[4]
  MIC: 0.5 µg/mL (≈ 1.63 µM)
[5]
  MIC: 2 µg/mL (≈ 6.53 µM)
[6]
  MIC: 64 µg/mL (≈ 209 µM)
[7]; read-out: Fluconazole MIC
  MIC: 64 µg/mL (≈ 209 µM)
YEM 53 C. krusei
  MIC: 64 µg/mL (≈ 209 µM)
C. tropicalis
  MIC: > 128 µg/mL
[8]; read-out: Fluconazole MIC
  MIC: 128 µg/mL (≈ 418 µM)
C. neoformans
  MIC: > 128 µg/mL
[9]
  MIC: ≤ 0.125 µg/mL
C. glabrata, CgCDR up
  Synergy Volume, fluconazole + one milbemycin (FEPI, not named): 1815
[10]
  Synergy Volume, fluconazole + one milbemycin (FEPI, not named): 2337
[11]
  Synergy Volume, fluconazole + one milbemycin (FEPI, not named): 0.08
C. krusei YEM-71; YEM71, read-out: Fluconazole MIC
  MIC: 128 µg/mL
[12]
  Fluconazole MIC with 0 μg/ml milbemycin β1: 8 µg/mL
YEM 51 C. glabrata wt
  MIC: 64 µg/mL (≈ 209 µM)
[13]
  Fluconazole MIC: 32 µg/mL
[14]
  MIC: 0.25 µg/mL (≈ 0.816 µM)
[15]
  MIC: 0.125 µg/mL (≈ 0.408 µM)
[16]
  MIC: 0.5 µg/mL (≈ 1.63 µM)
[17]
  Fluconazole MIC with 0 μg/ml milbemycin β1: 16 µg/mL
[18]
  MIC: 0.03 µg/mL (≈ 0.098 µM)
[19]
  MIC: 0.25 µg/mL (≈ 0.816 µM)
C. lipolytica
  MIC: 128 µg/mL (≈ 418 µM)
[20]
  MIC: 64 µg/mL (≈ 209 µM)
[21]
  MIC: 0.125 µg/mL (≈ 0.408 µM)
[22]
  MIC: 64 µg/mL (≈ 209 µM)
[23]
  Fluconazole MIC with 0 μg/ml milbemycin β1: 64 µg/mL
C. krusei [24]
  Synergy Volume, fluconazole + one milbemycin (FEPI, not named): 1178
C. albicans BEN up
  Synergy Volume, fluconazole + one milbemycin (FEPI, not named): 196
C. krusei [25]
  MIC: 128 µg/mL (≈ 418 µM)
[26]; read-out: Fluconazole MIC50, alone
  MIC50: 32 µg/mL (≈ 104 µM)
[26]; [32]
  MIC90: > 128 µg/mL
[27]; read-out: Fluconazole MIC
  MIC: 4 µg/mL (≈ 13.1 µM)
[28]; read-out: Fluconazole MIC50, alone, C. albicans n = 33, MIC (80%) in YPD
  MIC50: 1 µg/mL (≈ 3.27 µM)
[28]; [32]
  MIC90: > 128 µg/mL
[29]
  Fluconazole MIC with 0 μg/ml milbemycin β1: 128 µg/mL
[30]
  MIC: 0.25 µg/mL (≈ 0.816 µM)
[31]; read-out: Fluconazole MIC
  MIC: 128 µg/mL (≈ 418 µM)

## CN(C/C=C/C#CC(C)(C)C)Cc1cccc2ccccc12 [Terbinafine, terbinafine]
[1]; read-out: Terbinafine MIC
  MIC: 128 µg/mL (≈ 439 µM)
[7]; read-out: Terbinafine MIC
  MIC: 4 µg/mL (≈ 13.7 µM)
[8]; read-out: Terbinafine MIC
  MIC: 128 µg/mL (≈ 439 µM)
C. glabrata, CgCDR up
  Synergy Volume, terbinafine + one milbemycin (FEPI, not named): 392
[10]
  Synergy Volume, terbinafine + one milbemycin (FEPI, not named): 1386
[11]
  Synergy Volume, terbinafine + one milbemycin (FEPI, not named): 169
C. krusei YEM-71; YEM71, read-out: Terbinafine MIC
  MIC: 128 µg/mL
C. krusei [24]
  Synergy Volume, terbinafine + one milbemycin (FEPI, not named): 1517
C. albicans BEN up
  Synergy Volume, terbinafine + one milbemycin (FEPI, not named): 500
C. albicans, wt
  Synergy Volume, terbinafine + one milbemycin (FEPI, not named): 2790
C. glabrata, wt
  Synergy Volume, terbinafine + one milbemycin (FEPI, not named): 478
[27]; read-out: Terbinafine MIC
  MIC: 2 µg/mL (≈ 6.86 µM)
[31]; read-out: Terbinafine MIC
  MIC: 128 µg/mL (≈ 439 µM)
